“And” between values parts separate entries of the source, which are not always exact repeats. Equal values may be shown once.
How the values were obtained:
NIH-3T3 cells [1] = test: Post-thaw viability of cryopreserved NIH-3T3 cells (CCK-8), Example 1; format: cell-based; details: for Post-thaw viability, 24 hours post thaw / Post-thaw viability, 48 hours post-thaw: Table 1
Experimental: Cryopreservation protocol. […] Discarded 95% of the old media and added 0.5 mL new DMEM (pH=7.4) with 10% FBS and 400 mM trehalose (filtered with 0.22 μm filter) and re-suspended the cells. • Transferred the cell culture to cryo-tube and stored the tubes at −80° C. for 3 days. • Thawed the cells at 37° C. in a water bath until ice melted. • Counted the cell density in each cryo-tube with cell counter. • Re-cultured the cells in 96-well plate with fresh DMEM (PH=7.4) with 10% FBS. (while keeping cell density the approximately the same for each well). • Used CCK-8 kit to test the post-thaw viability after certain time.

NIH-3T3 cells [2] = test: Post-thaw total cell recovery of cryopreserved cells (trypan blue exclusion); format: cell-based; details: ±SEM
Experimental: The delivery of sugar alcohols into cells makes it possible to turn these molecules into intracellular CPAs. […] Total post-thaw cell recovery, defined as the ratio (%) of post-thaw live cells to the number of initially frozen live cells, which provides a more accurate measure of cryoprotective outcome than cell viability, was used to assess the cryoprotective effects of the diesters.
Systematic studies were then performed by incubating the cells (1) with each of diesters 1-4 (10 mM), (2) with unmodified sorbitol, mannitol, xylitol, or erythritol (10 mM), and (3) in medium without any of the diesters or sugar alcohols, at 37° C. for 48 h. The cells treated with diesters 1-4 and the four sugar alcohols were then transferred to freezing media consisting of DMEM, 10% FBS and 400 mM trehalose. The cells incubated with only the medium were divided into two portions, one being directly transferred to the freezing medium containing 400 mM trehalose (control 1) and the other being placed in a different freezing medium consisting of DMEM, 10% FBS and 5% DMSO but without trehalose (control 2). After being frozen at −80° C. for 72 h, the cells were thawed in a warm water bath at 37° C. until ice melted. The post-thaw cells were either immediately analyzed for their survival or were cultured in growth media (DMEM with 10% FBS) for 24 h and 48 h before being analyzed.
Incubation (for cryopreservation). NIH/3T3 cells were seeded into cell culture treated plates (100 mm) at a density of 2×10^4 cells/mL (10 mL/plate), allowed to adhere overnight and then incubated with different sample solutions (10 mL) for 48 hours at 37° C. under 5% CO2. Control cells were incubated with growth medium.
Cryopreservation. At the end of the incubation, the cells were rinsed with PBS (2 mL) and detached using 0.25% trypsin-EDTA (3 mL). The cells were pelleted (200×g, 5 min) and resuspended in growth medium with 400 mM trehalose except for the control-2 group. For control-2 group, cells were resuspended in growth medium with 5% DMSO (v/v). An aliquot of cells of each group was then removed for counting by a DeNovix Celldrop cell counter to obtain prefreeze number of viable cells. The remaining cell suspension was transferred into a 2 mL cryogenic vial. The vials were directly transferred to −80° C. freezer without controlling cooling rate and stored at −80° C. freezer for 3 days. To thaw, cryogenic vials were removed from −80° C. freezer and suspended in a 37° C. water bath until ice melt. To the contents of each vial 1 mL growth medium was added and centrifuged (200×g , 5 min). The supernatant was discarded and cell pellet was resuspended in 1 mL growth cell medium. An aliquot of cell suspension of each group was then removed for counting with a DeNovix Celldrop cell counter to obtain the number of viable cells at 0-hr post-thaw. The remaining cell suspension was split equally and resuspended into two cell culture treated plates (100 mm) with 10 mL growth medium in each plate. The plates were then maintained for either 24 hours or 48 hours at 37° C. under 5% CO2. After being cultured for either 24 hours or 48 hours, the cells were rinsed with PBS (2 mL) and detached using 0.25% trypsin-EDTA (3 mL). The cells were pelleted (200×g, 5 min) and resuspended in growth medium. The cell suspension was then analyzed by DeNovix Celldrop cell counter to obtain number of viable cells at either 24-hr or 48-hr post-thaw.
Trypan Blue Exclusion Assay. For all time points, a sample of cells was mixed 1:1 in 0.4% trypan blue and counted using a DeNovix Celldrop. Cell recovery was calculated as the ratio of viable cells to the number of cells initially frozen.

3T3 cells = test: Cryopreservation, post-thaw recovery rate, Example 3; format: cell-based; details: incubated with medium only; frozen −80° C. in medium with 5% DMSO
Experimental: Cryopreservation: The cryopreservation effects of EGL-3Pro and EGL-3Phe were tested on 3T3 cells. The cells were incubated with 5 mM or 10 mM EGL-3Pro or 0.5 mM EGL-3Phe or medium only (two control groups) for 72 hours. After incubation, the cells were detached by treating […] pelleted by centrifuging (200×g). The cells were then resuspended in medium with 400 mM trehalose or 5% DMSO (for control 2 group) in cryovials and a small portion of cell suspension were used for counting pre-freeze cell number. The vials were directly put in −80° C. freezer and stored for at least 3 days. The cells were thawed in 37° C. water bath until ice melt, and resuspended in 10 mL fresh medium and pelleted by centrifuging (200×g). The cells were then resuspended in 1 mL fresh medium and counted by cell counter. The recovery rate was obtained by dividing post-thaw lived cell number by pre-freeze lived cell number.

NIH-3T3 cells [3] = test: Live/dead fluorescence microscopy of post-thaw cells (calcein-AM / ethidium homodimer-1); format: cell-based; details: 24 h post-thaw; incubated with 10 mM for 48 h, frozen in media with 400 mM trehalose (FIG. 14)
Experimental: DIC and Fluorescence images capturing. NIH/3T3 cells were treated as the same as for cryopreservation experiment and were thawed in a 37° C. water bath until ice melt. Cells in each vial were then pelleted (200×g, 5 min), re-suspended in 1 mL fresh growth medium and plated into 96 well plate and grown for 24 hours. Each well was washed with sterile PBS (100 μL). Sterile PBS (200 μL) containing 2 μM calcein-AM and 4 μM ethidium homodimer-1 (EthD-1) was then added to each well. The 96-well plate was then incubated in a CO2 incubator at 37° C. for 30 min. Fresh cells without freezing were plated at similar density in 96-well plate as comparison. DIC and fluorescence microscopy images were captured at 509 and 580 nm on Axioplan 2 fluorescent microscope (Zeiss [Carl Zeiss], Thornwood, NY) with an Axiocam MRm camera (Zeiss). Axiovision 4 software (Zeiss) was used for image acquisition. Digital images were processed with ImageJ (imagej.nih.gov/ij/).

NIH-3T3 cells [4] = test: Cytotoxicity, CCK-8 cell viability after 48 h incubation
Experimental: Cytotoxicity assays were performed by exposing NIH-3T3 cells to the diesters. Cell viability was determined by using Cell Counting Kit-8 (CCK-8) reagent and a BioTek microplate reader to count the numbers of live and dead cells.
NIH/3T3 cells were seeded into 96-well plates (Fisher brand) at a density of 8,000 cells in 150 μL growth medium per well. The cells were incubated for 24 hours at 37° C. with 5% CO2. After 24 hours all medium was aspired one row at a time and treated with various concentrations of each compound (10 mM, 5 mM, 1 mM, 0.5 mM and 0.1 mM) or carboxylic acid/NaOH (10 mM/5 mM, 5 mM/2.5 mM). The control cells were treated with fresh medium only. The cells were then incubated again for 48 hours at 37° C. with 5% CO2. After incubation, all medium was aspired and replaced with fresh medium and 10% (v/v) CCK-8 reagent and returned to incubate at 37° C. with 5% CO2 for 2 hours. Cell viability was then calculated from the OD value read by a plate reader (Biotek Synergy H1) at wavelength of 450 nm.

[5] = incubated with 10% DMSO, reference set as 100%
[6] = Table 2, incubated with 10% DMSO, reference set as 100%
[7] = Table 3, incubated with 10% DMSO, reference set as 100%
[8] = incubated with media only, frozen in media containing 5% DMSO without trehalose
[9] = incubated with 10 mM for 48 h, frozen −80° C. 72 h in media with 400 mM trehalose
[10] = incubated at 5 mM without DMSO, frozen −80° C. 72 hours, freezing media with 400 mM trehalose, 10% DMSO set as 100%
[11] = incubated at 10 mM without DMSO, frozen −80° C. 72 hours, freezing media with 400 mM trehalose, 10% DMSO set as 100%
[12] = Table 2, incubated 36 hours at 5 mM without DMSO, frozen −80° C. 72 hours, 400 mM trehalose, 10% DMSO set as 100%
[13] = Table 2, incubated 36 hours at 10 mM without DMSO, frozen −80° C. 72 hours, 400 mM trehalose, 10% DMSO set as 100%
[14] = Table 3, incubated 36 hours at 5 mM without DMSO, frozen −80° C. 72 hours, 400 mM trehalose, 10% DMSO set as 100%
[15] = Table 3, incubated 36 hours at 10 mM without DMSO, frozen −80° C. 72 hours, 400 mM trehalose, 10% DMSO set as 100%

C[S+](C)[O-] [DMSO, dimethyl sulfoxide, reference compound]
Post-thaw viability, 24 hours post thaw (NIH-3T3 cells [1]; [5]): 100.0 ± 11.8%
Post-thaw viability, 48 hours post-thaw (NIH-3T3 cells [1]; [5]): 100.0 ± 4.0%
Post-thaw viability (%), 24 hours post thaw (NIH-3T3 cells [1]; [6]): 100.0 ± 3.6%
Post-thaw viability (%), 48 hours post-thaw (NIH-3T3 cells [1]; [6]): 100.0 ± 13.4%
Post-thaw viability (%), 24 hours post thaw (NIH-3T3 cells [1]; [7]): 100.0 ± 13.5%
Post-thaw viability (%), 48 hours post-thaw (NIH-3T3 cells [1]; [7]): 100.0 ± 5.3%
Post-thaw recovery (%) 0-hr (NIH-3T3 cells [2]; [8]): 84.5 ± 3.8%
Post-thaw recovery (%) 24-hr (NIH-3T3 cells [2]; [8]): 93.9 ± 2.4%
Post-thaw recovery (%) 48-hr (NIH-3T3 cells [2]; [8]): 196.4 ± 5.7%
0-hour post thaw recovery (%) (3T3 cells): 77.9 ± 3.8%

CCC(=O)OC[C@@H](O)[C@@H](O)COC(=O)CC [EryPr2]
Post-thaw recovery (%) 0-hr (NIH-3T3 cells [2]; [9]): 48% and 47.9 ± 3.4%
Post-thaw recovery (%) 24-hr (NIH-3T3 cells [2]; [9]): 42.6 ± 2.6%
Post-thaw recovery (%) 48-hr (NIH-3T3 cells [2]; [9]): 72% and 71.6 ± 3.9%

OC[C@@H](O)[C@@H](O)CO [Erythritol, erythritol, reference compound]
Post-thaw recovery (%) 0-hr (NIH-3T3 cells [2]; [9]): 33.5 ± 2.7%
Post-thaw recovery (%) 24-hr (NIH-3T3 cells [2]; [9]): 26.0 ± 0.6%
Post-thaw recovery (%) 48-hr (NIH-3T3 cells [2]; [9]): 42.3 ± 1.2%

O=C(OCC(COC(=O)[C@@H]1CCCN1)OC(=O)[C@@H]1CCCN1)[C@@H]1CCCN1 [GLC3P]
Post-thaw viability, 24 hours post thaw (NIH-3T3 cells [1]; [10]): 130.9 ± 5.3%
Post-thaw viability, 48 hours post-thaw (NIH-3T3 cells [1]; [10]): 143.8 ± 4.2%
Post-thaw viability, 24 hours post thaw (NIH-3T3 cells [1]; [11]): 174.7 ± 6.9%
Post-thaw viability, 48 hours post-thaw (NIH-3T3 cells [1]; [11]): 220.4 ± 5.5%

OC[C@@H](O)[C@@H](O)[C@H](O)[C@H](O)CO [Mannitol, mannitol, reference compound]
Post-thaw viability/recovery in fluorescence microscopy images (NIH-3T3 cells [3]): does not result in higher post-thaw viability than cells treated with media only
Post-thaw recovery (%) 0-hr (NIH-3T3 cells [2]; [9]): 24.1 ± 1.8%
Post-thaw recovery (%) 24-hr (NIH-3T3 cells [2]; [9]): 20.8 ± 1.5%
Post-thaw recovery (%) 48-hr (NIH-3T3 cells [2]; [9]): 41.5 ± 3.0%

O=C(OC[C@H](OC(=O)[C@@H]1CCCN1)[C@@H](OC(=O)[C@@H]1CCCN1)[C@H](OC(=O)[C@@H]1CCCN1)[C@@H](COC(=O)[C@@H]1CCCN1)OC(=O)[C@@H]1CCCN1)[C@@H]1CCCN1 [SBT6P]
Post-thaw viability (%), 24 hours post thaw (NIH-3T3 cells [1]; [12]): 33.3 ± 1.4%
Post-thaw viability (%), 48 hours post-thaw (NIH-3T3 cells [1]; [12]): 66.2 ± 2.0%
Post-thaw viability (%), 24 hours post thaw (NIH-3T3 cells [1]; [13]): 34.0 ± 3.5%
Post-thaw viability (%), 48 hours post-thaw (NIH-3T3 cells [1]; [13]): 69.6 ± 6.5%

CCCC(=O)OC[C@@H](O)[C@@H](O)[C@H](O)[C@@H](O)COC(=O)CCC [SorbBa2]
Post-thaw viability (%), 24 hours post thaw (NIH-3T3 cells [1]; [14]): 113.4 ± 9.5%
Post-thaw viability (%), 48 hours post-thaw (NIH-3T3 cells [1]; [14]): 143.3 ± 7.4%
Post-thaw viability (%), 24 hours post thaw (NIH-3T3 cells [1]; [15]): 150.4 ± 1.5%
Post-thaw viability (%), 48 hours post-thaw (NIH-3T3 cells [1]; [15]): 211.8 ± 2.2%

OC[C@@H](O)[C@@H](O)[C@H](O)[C@@H](O)CO [Sorbitol, sorbitol, reference compound]
Post-thaw viability/recovery in fluorescence microscopy images (NIH-3T3 cells [3]): does not result in higher post-thaw viability than cells treated with media only
Post-thaw recovery (%) 0-hr (NIH-3T3 cells [2]; [9]): 32.8 ± 3.2%
Post-thaw recovery (%) 24-hr (NIH-3T3 cells [2]; [9]): 28.4 ± 2.1%
Post-thaw recovery (%) 48-hr (NIH-3T3 cells [2]; [9]): 50.8 ± 3.5%

CCC(=O)OC[C@@H](O)[C@H](O)[C@@H](O)COC(=O)CC [XylPr2]
Post-thaw recovery (%) 0-hr (NIH-3T3 cells [2]; [9]): 52.1 ± 4.8%
Post-thaw recovery (%) 24-hr (NIH-3T3 cells [2]; [9]): 49.7 ± 1.1%
Post-thaw recovery (%) 48-hr (NIH-3T3 cells [2]; [9]): 90.0 ± 4.3%

OC[C@@H](O)[C@H](O)[C@@H](O)CO [Xylitol, xylitol, reference compound]
Post-thaw recovery (%) 0-hr (NIH-3T3 cells [2]; [9]): 24.6 ± 2.4%
Post-thaw recovery (%) 24-hr (NIH-3T3 cells [2]; [9]): 22.1 ± 2.1%
Post-thaw recovery (%) 48-hr (NIH-3T3 cells [2]; [9]): 44.3 ± 4.7%

CCCC(=O)O [butyric acid]
Cell viability relative to control groups (NIH-3T3 cells [4]; at 5 mM): ~50%
Cell viability relative to control groups (NIH-3T3 cells [4]; at 10 mM): ~40%

CCC(=O)O [propionic acid]
Cell viability relative to control groups (NIH-3T3 cells [4]; up to 10 mM): ~70%

From patent publication US20240065261A1, “PENETRATING CRYOPROTECTION AGENTS AND METHODS OF MAKING AND USING SAME” (The Research Foundation for The State University of New York, priority 2020, published 2024)
